In patent publication US9018173B2, “Materials and methods for suppressing inflammatory and neuropathic pain” (Indiana University Research and Technology Corp., priority 2010, dated 2015):
Entries after “also recorded” stand apart in the source; their conditions may differ. Residues, ends and D or L forms follow the SMILES beside them.

Legend:
[1] = test system: depression/despair-associated behavior; assay: Tail suspension test (TST); assay type: in vivo, C57BL6 mice; settings: for Tail Suspension Test: Active: C57BL6 mice, 1 h after injection, 5 min test
Experimental: The light-dark box test and the elevated plus maze were used as measures of anxiety-associated behaviors. The tail suspension test was performed to evaluate despair- and depression-associated behavior.
Depression/Despair-behavior testing. Since rodents such as mice and rats display immobile postures when placed in inescapable stressful situations, immobility behavior in the tail suspension test (TST) or forced swim test (FST) is used as a measure of “depression” or “despair”-associated behavior. Furthermore, administering antidepressant treatments prior to testing reduces immobility behavior. Therefore TST and FST are often used to screen novel drugs for depressant or anti-depressant properties.
Tail suspension test as a measure of depression-associated behavior. Immediately following the EPM test, the TST was conducted according to standard procedure between 8:00 AM and 2:00 PM. Cryan, J. F., Mombereau, C., & Vassout, A. The tail suspension test as a model for assessing antidepressant activity: review of pharmacological and genetic studies in mice. Neurosci. Biobehay. Rev. 29, 571-625 (2005). Briefly, each mouse was suspended by the tail at a height of 40 cm by taping the rail to a horizontal bar so that the tail is vertical to the bar. Behavior was video recorded for 5 min and later analyzed by an experimenter, whom was blind to the treatments. […] If a mouse climbed its tail the mouse was gently pulled back down and the trial continued. Mice that climbed their tails for more than 20% of the trial (i.e. >60 seconds) were eliminated from the final analysis. Duration and frequency of immobility was the main parameters measured. Mice injected with the scrambled control peptide were immobile approximately 26% of the TST duration which is equivalent to baseline immobility durations (approximately 27%) observed in C57B16 mice in another recent study.

[2] = test system: depolarization-induced Ca2+ influx in hippocampal neurons; assay: Fura-2 calcium imaging of hippocampal neurons; assay type: cell-based, rat; settings: expressed from plasmid; KCl 30 mM; Fura-2AM
Experimental: Referring now to FIG. 19. Overexpressed CBD3 or TAT-CBD3 reduces Ca^2+ influx predominantly via N-Type Ca^2+ channels. (FIGS. 19.A and 19.B) hippocampal neurons cultured for 5 days in vitro were transfected with DNA constructs encoding CBD3 or a scramble sequence using Lipofectamine, and then loaded with the ratiometric Ca^2+-sensitive dye Fura-2AM (3 μM). Changes in [Ca^2+]c, in response to plasma membrane depolarization with potassium chloride (KCl, 30 mM), were recorded using time-lapse, wide-field fluorescence microscopy. […] In both panels, n indicates the number of neurons from which Fura-2 fluorescence was recorded. […] (FIG. 19.D) Ca^2+ influx was monitored in DRG neurons using Fura-2AM. […] Changes in the Fura-2 F340/F380 were monitored for 10 min following stimulation with 45 mM KCl. […]
Isolation and maintenance of primary hippocampal neurons for calcium imaging. […] For fluorescence measurements, neurons were plated on glass-bottomed Petri dishes without preplated glia as previously described. […]
Calcium imaging. […] Osmolarity of the solutions was measured with the osmometer Osmette II™ (Precision Systems Inc., Natick, Mass.). […] Fluorescence was recorded through a 505 nm dichroic mirror at 535±25 nm. The fluorescence images were taken every 5 seconds during the time-course of the experiment using the minimal exposure time that provided acceptable image quality. […]

Row | Compound | Tail Suspension Test: Active ([1]; 0.1 mg/kg i.p.) [s] | Tail Suspension Test: Active ([1]; 1 mg/kg i.p.) [s] | Tail Suspension Test: Active ([1]; 10 mg/kg i.p.) [s] | TST time spent immobile and frequency of immobile episodes ([1]; any dose, compared to TAT-Scramble) | depolarization-induced calcium influx [2]
1 | CC(C)C[C@H](NC(=O)CNC(=O)[C@H](CCCNC(=N)N)NC(=O)[C@@H]1CCCN1C(=O)[C@@H](NC(=O)CNC(=O)[C@H](CCCNC(=N)N)NC(=O)[C@H](CC(C)C)NC(=O)[C@H](CCC(=O)O)NC(=O)[C@H](C)NC(=O)[C@H](CC(C)C)NC(=O)[C@H](CCCNC(=N)N)NC(=O)[C@H](CO)NC(=O)[C@H](CCCNC(=N)N)NC(=O)[C@H](C)NC(=O)[C@H](CCCNC(=N)N)NC(=O)[C@H](CCCNC(=N)N)NC(=O)[C@H](CCCNC(=N)N)NC(=O)[C@H](CCC(N)=O)NC(=O)[C@H](CCCNC(=N)N)NC(=O)[C@H](CCCNC(=N)N)NC(=O)[C@H](CCCCN)NC(=O)[C@H](CCCCN)NC(=O)[C@H](CCCNC(=N)N)NC(=O)CNC(=O)[C@@H](N)Cc1ccc(O)cc1)C(C)C)C(=O)O [TAT-CBD3] (H-YGRKKRRQRRRARSRLAELRGVPRGL-OH; N-terminus and C-terminus assumed) | 238.1 ± 13.6 | 235.2 ± 13.0 | 239.7 ± 10.9 | neither time spent immobile, nor frequencies of immobile episodes were altered | –
2 | ARSRLAELRGVPRGL (CBD3) | – | – | – | – | reduced depolarization-induced calcium influx; also recorded: blocked depolarization-induced calcium signaling
